# Laboratory results reported in patent US20110230481A2, “DERIVATIVES OF TETRABROMOBENZIMIDAZOLE, A PROCESS FOR THE PREPARATION THEREOF, A PHARMACEUTICAL COMPOSITION COMPRISING THE SAME, A METHOD OF USING THE SAME, A METHOD FOR MODULATING OR REGULATING SERINE/THREONINE KINASES, AND SERINE/THREONINE KINASES MODULATING AGENT” (SELVITA S.A., priority 2009, published 2011).
# Tests used:
# Assay in all cases: KINOMEscan Max
# Type in all cases: binding
# [1] = target: ABL1(M351T)-phosphorylated (Homo sapiens, UniProt P00519, M351T)
# In short: (§1)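 Compound displacement of DNA-tagged kinase from immobilized active-site ligand; qPCR of tag as read-out.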
# ACVR2B = target: T1, ACVR2B (Homo sapiens, UniProt Q13705); details: 1 μM
# T1 construct: DNA tag (qPCR label); purchased Ambit Kinomescan (contract screening)
# In short: as §1
# AKT3 = target: T2, AKT3 (Homo sapiens, UniProt Q9Y243)
# T2 construct: purchased Ambit (KINOMEscan Max service)
# T2 sequence (Q9Y243 whole entry): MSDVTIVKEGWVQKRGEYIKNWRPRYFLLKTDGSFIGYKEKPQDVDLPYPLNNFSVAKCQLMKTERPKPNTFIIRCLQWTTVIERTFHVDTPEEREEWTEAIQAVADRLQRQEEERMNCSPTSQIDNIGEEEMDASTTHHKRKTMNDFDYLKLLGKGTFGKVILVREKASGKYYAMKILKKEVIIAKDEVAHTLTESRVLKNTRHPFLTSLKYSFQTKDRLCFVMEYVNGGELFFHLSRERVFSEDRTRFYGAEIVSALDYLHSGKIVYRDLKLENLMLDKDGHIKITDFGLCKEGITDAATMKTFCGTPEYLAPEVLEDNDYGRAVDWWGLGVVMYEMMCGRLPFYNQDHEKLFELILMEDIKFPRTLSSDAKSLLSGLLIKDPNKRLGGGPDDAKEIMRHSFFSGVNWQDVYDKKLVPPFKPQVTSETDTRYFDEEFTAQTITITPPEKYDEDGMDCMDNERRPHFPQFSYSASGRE
# In short: as §1
# BRK = target: T3, BRK (Homo sapiens, UniProt Q13882)
# T3 construct: DNA tag (qPCR label); purchased Ambit Kinomescan (contract screening)
# T3 sequence (Q13882 whole entry): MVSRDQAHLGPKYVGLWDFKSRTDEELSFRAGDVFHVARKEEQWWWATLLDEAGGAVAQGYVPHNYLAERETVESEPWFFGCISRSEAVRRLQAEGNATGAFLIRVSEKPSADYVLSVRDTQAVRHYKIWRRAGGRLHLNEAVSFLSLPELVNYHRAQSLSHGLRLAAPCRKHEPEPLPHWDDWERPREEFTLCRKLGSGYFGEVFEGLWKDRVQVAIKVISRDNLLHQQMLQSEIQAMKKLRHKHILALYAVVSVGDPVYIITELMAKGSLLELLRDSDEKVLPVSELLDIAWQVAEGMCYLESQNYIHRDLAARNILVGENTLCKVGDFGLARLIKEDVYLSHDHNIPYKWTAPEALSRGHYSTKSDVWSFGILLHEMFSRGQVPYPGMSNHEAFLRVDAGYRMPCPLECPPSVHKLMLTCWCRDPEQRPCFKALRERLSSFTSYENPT
# In short: as §1
# CAMK2A = CAMK2A (Homo sapiens, UniProt Q9UQM7)
# Chain of CAMK2A (Q9UQM7 whole entry): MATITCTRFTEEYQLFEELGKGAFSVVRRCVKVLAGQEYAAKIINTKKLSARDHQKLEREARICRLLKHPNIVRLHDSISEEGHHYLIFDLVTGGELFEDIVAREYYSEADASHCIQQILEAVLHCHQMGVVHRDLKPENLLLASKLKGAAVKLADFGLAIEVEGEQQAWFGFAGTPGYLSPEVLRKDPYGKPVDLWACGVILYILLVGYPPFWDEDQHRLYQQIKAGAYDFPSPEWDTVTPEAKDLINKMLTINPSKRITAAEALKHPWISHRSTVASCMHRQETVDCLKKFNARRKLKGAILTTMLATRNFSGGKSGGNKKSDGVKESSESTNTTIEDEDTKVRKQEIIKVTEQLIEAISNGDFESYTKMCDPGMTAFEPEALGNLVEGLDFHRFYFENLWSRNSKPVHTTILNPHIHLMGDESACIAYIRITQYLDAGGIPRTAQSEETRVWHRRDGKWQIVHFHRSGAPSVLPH
# In short: as §1
# CDK7 = target: T4, CDK7 (Homo sapiens, UniProt P50613)
# T4 construct: DNA tag (qPCR read-out)
# In short: as §1
# CSNK1A1L = CSNK1A1L (Homo sapiens, UniProt Q8N752)
# Chain of CSNK1A1L (Q8N752 whole entry): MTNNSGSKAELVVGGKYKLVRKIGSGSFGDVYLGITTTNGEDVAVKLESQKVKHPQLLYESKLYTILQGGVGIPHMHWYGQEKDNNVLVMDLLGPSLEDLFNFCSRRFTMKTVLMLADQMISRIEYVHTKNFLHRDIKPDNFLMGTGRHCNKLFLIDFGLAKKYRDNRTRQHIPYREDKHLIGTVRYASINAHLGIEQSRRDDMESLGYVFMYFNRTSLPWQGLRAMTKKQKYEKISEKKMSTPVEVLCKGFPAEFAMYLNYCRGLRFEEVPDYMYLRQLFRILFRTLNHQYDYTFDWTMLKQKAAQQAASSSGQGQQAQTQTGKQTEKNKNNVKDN
# In short: as §1
# CSNK2A1 = target: T5, CSNK2A1 (Homo sapiens, UniProt P68400)
# T5 construct: purchased Ambit (KINOMEscan Max panel service)
# T5 sequence (P68400 whole entry): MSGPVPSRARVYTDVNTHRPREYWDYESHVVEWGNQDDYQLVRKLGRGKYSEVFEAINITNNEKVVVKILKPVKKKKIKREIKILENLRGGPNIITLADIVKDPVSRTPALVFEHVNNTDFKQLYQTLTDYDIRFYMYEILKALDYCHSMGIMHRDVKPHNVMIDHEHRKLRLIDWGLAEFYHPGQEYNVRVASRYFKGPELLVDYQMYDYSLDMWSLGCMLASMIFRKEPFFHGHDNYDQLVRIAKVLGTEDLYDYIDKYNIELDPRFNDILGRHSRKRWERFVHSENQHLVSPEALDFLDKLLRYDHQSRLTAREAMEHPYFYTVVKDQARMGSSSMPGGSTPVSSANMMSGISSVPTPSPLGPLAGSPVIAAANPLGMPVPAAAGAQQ
# In short: as §1
# DRAK2 = target: T6, DRAK2 (Homo sapiens, UniProt O94768)
# T6 construct: purchased Ambit (KINOMEscan Max panel service)
# T6 sequence (O94768 whole entry): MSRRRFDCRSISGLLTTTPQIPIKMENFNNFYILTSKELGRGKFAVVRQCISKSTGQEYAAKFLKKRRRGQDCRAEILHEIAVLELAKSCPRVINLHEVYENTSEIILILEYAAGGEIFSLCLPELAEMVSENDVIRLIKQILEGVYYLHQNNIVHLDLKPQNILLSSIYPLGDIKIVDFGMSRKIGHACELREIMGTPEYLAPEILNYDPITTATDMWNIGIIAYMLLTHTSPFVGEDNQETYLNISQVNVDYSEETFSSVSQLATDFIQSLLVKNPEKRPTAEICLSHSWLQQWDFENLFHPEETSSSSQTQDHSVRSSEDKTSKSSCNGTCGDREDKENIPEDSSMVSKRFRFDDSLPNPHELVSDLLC
# In short: as §1
# EPHA5 = target: T7, EPHA5 (Homo sapiens, UniProt P54756); details: 1 μM
# T7 construct: purchased Ambit (KINOMEscan Max panel service)
# In short: as §1
# ERBB3 = target: T8, ERBB3 (Homo sapiens, UniProt P21860)
# T8 construct: purchased Ambit (KINOMEscan Max service)
# In short: as §1
# ERBB4 = target: T9, ERBB4 (Homo sapiens, UniProt Q15303)
# T9 construct: purchased Ambit Kinomescan (contract panel, KINOMEscan Max)
# In short: as §1
# ERK1 = target: T10, ERK1 (Homo sapiens, UniProt P27361)
# T10 construct: purchased Ambit Kinomescan (contract panel, KINOMEscan Max)
# T10 sequence (P27361 whole entry): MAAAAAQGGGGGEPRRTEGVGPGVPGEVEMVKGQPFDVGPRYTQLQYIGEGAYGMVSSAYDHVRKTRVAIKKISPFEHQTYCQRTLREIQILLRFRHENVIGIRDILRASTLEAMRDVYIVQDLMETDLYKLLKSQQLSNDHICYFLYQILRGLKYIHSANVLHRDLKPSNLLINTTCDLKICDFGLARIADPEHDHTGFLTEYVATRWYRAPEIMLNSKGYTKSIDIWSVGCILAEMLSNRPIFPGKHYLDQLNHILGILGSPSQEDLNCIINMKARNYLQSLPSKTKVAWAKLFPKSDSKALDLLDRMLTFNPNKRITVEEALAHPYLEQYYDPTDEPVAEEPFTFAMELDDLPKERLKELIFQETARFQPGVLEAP
# In short: as §1
# FGFR1 = target: T11, FGFR1 (Homo sapiens, UniProt P11362)
# T11 construct: purchased Ambit Kinomescan (contract panel, KINOMEscan Max)
# T11 sequence (P11362 22-822): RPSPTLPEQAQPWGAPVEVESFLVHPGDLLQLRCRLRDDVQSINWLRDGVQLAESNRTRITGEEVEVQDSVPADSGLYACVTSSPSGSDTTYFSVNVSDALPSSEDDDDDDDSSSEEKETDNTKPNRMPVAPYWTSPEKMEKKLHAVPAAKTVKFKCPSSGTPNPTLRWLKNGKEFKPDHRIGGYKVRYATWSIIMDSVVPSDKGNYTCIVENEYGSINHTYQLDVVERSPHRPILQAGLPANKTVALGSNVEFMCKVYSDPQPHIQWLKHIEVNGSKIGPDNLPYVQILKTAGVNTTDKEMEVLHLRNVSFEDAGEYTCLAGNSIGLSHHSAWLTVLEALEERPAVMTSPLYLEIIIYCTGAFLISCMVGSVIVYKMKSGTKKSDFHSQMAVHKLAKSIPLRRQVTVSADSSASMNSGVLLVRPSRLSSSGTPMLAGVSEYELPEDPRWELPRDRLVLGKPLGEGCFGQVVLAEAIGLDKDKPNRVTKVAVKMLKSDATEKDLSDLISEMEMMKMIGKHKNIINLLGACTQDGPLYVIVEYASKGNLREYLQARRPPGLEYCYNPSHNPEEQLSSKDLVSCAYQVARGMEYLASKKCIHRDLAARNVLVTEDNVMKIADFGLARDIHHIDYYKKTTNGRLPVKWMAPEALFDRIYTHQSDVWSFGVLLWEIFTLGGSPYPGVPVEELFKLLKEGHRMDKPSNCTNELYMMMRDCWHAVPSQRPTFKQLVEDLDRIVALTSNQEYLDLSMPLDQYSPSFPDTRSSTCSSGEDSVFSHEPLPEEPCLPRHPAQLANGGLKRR
# In short: as §1
# FGFR4 = target: T12, FGFR4 (Homo sapiens, UniProt P22455)
# T12 construct: purchased Ambit (KINOMEscan Max service)
# In short: as §1
# GRK4 = target: T13, GRK4 (Homo sapiens, UniProt P32298)
# T13 construct: purchased Ambit Kinomescan (contract panel, KINOMEscan Max)
# In short: as §1
# GRK7 = target: T14, GRK7 (Homo sapiens, UniProt Q8WTQ7)
# T14 construct: purchased Ambit Kinomescan (contract panel, KINOMEscan Max)
# In short: as §1
# HPK1 = target: T15, HPK1 (Homo sapiens, UniProt Q92918)
# T15 construct: purchased Ambit Kinomescan (contract panel, KINOMEscan Max)
# T15 sequence (Q92918 whole entry): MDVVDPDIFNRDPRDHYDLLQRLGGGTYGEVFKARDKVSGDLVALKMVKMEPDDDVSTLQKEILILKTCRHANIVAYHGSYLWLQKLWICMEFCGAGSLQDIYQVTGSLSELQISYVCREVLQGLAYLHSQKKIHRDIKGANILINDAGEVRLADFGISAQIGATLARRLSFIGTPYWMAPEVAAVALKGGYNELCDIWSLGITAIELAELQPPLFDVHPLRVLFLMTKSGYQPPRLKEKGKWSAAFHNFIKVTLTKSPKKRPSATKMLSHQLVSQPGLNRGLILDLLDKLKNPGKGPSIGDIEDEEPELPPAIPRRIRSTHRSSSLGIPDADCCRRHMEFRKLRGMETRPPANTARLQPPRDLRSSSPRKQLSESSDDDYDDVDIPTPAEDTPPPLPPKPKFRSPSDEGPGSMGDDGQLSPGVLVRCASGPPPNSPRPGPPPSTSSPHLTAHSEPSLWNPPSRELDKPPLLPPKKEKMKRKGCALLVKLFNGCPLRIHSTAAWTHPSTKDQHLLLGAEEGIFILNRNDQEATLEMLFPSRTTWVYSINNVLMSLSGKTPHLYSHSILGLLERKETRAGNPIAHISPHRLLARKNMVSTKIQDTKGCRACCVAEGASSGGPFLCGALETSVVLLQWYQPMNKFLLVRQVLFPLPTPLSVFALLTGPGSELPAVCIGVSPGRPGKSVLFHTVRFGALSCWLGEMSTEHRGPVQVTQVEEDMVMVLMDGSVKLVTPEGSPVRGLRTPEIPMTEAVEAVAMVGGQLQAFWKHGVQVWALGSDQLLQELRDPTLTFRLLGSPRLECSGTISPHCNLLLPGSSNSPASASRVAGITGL
# In short: as §1
# IKK-epsilon = target: T16, IKK-epsilon (Homo sapiens, UniProt Q14164)
# T16 construct: purchased Ambit Kinomescan (contract panel, KINOMEscan Max)
# In short: as §1
# [2] = target: T17, JAK2(JH1domain-catalytic) (Homo sapiens, UniProt O60674); details: 1 μM
# T17 construct: JAK2(JH1domain-catalytic); purchased Ambit Kinomescan (contract screening)
# T17 sequence (O60674 849-1124 limits assumed): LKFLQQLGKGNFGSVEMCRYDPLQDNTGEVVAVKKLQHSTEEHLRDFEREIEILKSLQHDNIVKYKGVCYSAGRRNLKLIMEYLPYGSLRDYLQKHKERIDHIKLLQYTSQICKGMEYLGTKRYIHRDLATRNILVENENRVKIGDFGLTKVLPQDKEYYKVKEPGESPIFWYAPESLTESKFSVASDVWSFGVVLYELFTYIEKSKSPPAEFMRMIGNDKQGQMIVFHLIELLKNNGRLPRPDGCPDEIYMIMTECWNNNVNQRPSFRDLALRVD
# In short: as §1
# KIT(D816H) = target: T18, KIT(D816H) (Homo sapiens, UniProt P10721, D816H)
# T18 construct: purchased Ambit Kinomescan (contract screening)
# In short: as §1
# LKB1 = target: T19, LKB1 (Homo sapiens, UniProt Q15831)
# T19 construct: purchased Ambit Kinomescan (contract screening)
# In short: as §1
# MAP3K3 = target: T20, MAP3K3 (Homo sapiens, UniProt Q99759)
# T20 construct: purchased Ambit Kinomescan (contract panel)
# In short: as §1
# MAP4K2 = MAP4K2 (Homo sapiens, UniProt Q12851)
# In short: as §1
# MST2 = MST2 (Homo sapiens, UniProt Q13188)
# In short: as §1
# PLK4 = target: T21, PLK4 (Homo sapiens, UniProt O00444)
# T21 construct: DNA tag (qPCR read-out)
# In short: as §1
# PRKCH = target: T22, PRKCH (Homo sapiens, UniProt P24723)
# T22 construct: DNA tag (qPCR read-out); purchased Ambit Kinomescan
# In short: as §1
# PRKCI = target: T23, PRKCI (Homo sapiens, UniProt P41743)
# T23 construct: DNA tag (qPCR read-out)
# In short: as §1
# PYK2 = target: T24, PYK2 (Homo sapiens, UniProt Q14289)
# T24 construct: DNA tag (qPCR read-out)
# In short: as §1
# SRMS = target: T25, SRMS (Homo sapiens, UniProt Q9H3Y6)
# T25 construct: DNA tag (qPCR read-out)
# In short: as §1
# TBK1 = TBK1 (Homo sapiens, UniProt Q9UHD2)
# In short: as §1
# TRKC = TRKC (Homo sapiens, UniProt Q16288)
# In short: as §1
# YSK4 = YSK4 (Homo sapiens, UniProt Q56UN5)
# In short: as §1
# ZAK = ZAK (Homo sapiens, UniProt Q9NYL2)
# In short: as §1
compound,measurement,setting,value
"NCCCNc1nc2c(Br)c(Br)c(Br)c(Br)c2[nH]1 [Compound 11, N-(3-aminopropyl)-4,5,6,7-tetrabromo-1H-benzo[d]imidazol-2-amine]",remaining binding at 1 µM,[1],100%
same,% binding,ACVR2B,100%
same,remaining binding at 1 µM,AKT3,83%
same,remaining binding at 1 µM,BRK,100%
same,remaining binding at 1 µM,CAMK2A,96%
same,remaining binding at 1 µM,CDK7,27%
same,remaining binding at 1 µM,CSNK1A1L,76%
same,remaining binding at 1 µM,CSNK2A1,100%
same,remaining binding at 1 µM,DRAK2,100%
same,% binding,EPHA5,100%
same,remaining binding at 1 µM,ERBB3,68%
same,remaining binding at 1 µM,ERBB4,100%
same,remaining binding at 1 µM,ERK1,100%
same,remaining binding at 1 µM,FGFR1,100%
same,remaining binding at 1 µM,FGFR4,84%
same,remaining binding at 1 µM,GRK4,100%
same,remaining binding at 1 µM,GRK7,100%
same,remaining binding at 1 µM,HPK1,100%
same,remaining binding at 1 µM,IKK-epsilon,100%
same,% binding,[2],98%
same,remaining binding at 1 µM,KIT(D816H),97%
same,remaining binding at 1 µM,LKB1,96%
same,remaining binding at 1 µM,MAP3K3,100%
same,remaining binding at 1 µM,MAP4K2,78%
same,remaining binding at 1 µM,MST2,100%
same,remaining binding at 1 µM,PLK4,100%
same,remaining binding at 1 µM,PRKCH,23%
same,remaining binding at 1 µM,PRKCI,100%
same,remaining binding at 1 µM,PYK2,100%
same,remaining binding at 1 µM,SRMS,100%
same,remaining binding at 1 µM,TBK1,76%
same,remaining binding at 1 µM,TRKC,94%
same,remaining binding at 1 µM,YSK4,95%
same,remaining binding at 1 µM,ZAK,98%
